Measured values: patent US11518758B2, “Heteroarylaminopyrimidine amide autophagy inhibitors and methods of use thereof” (Deciphera Pharmaceuticals, LLC, priority 2019, dated 2022)

Columns and labels:
ULK1 kinase [1] = biological target: T1, ULK1 kinase (Homo sapiens, UniProt O75385, E37A/K38A); assay: Biochemical assay for ULK1.3 (coupled pyruvate kinase/lactate dehydrogenase assay); settings: 0.1 nM ULK1 (from Beryllium), peptide substrate, 1 mM ATP
T1 construct: (residues 1-283; ID NO: 2); purchased Beryllium
T1 sequence (O75385 1-283 E37A/K38A): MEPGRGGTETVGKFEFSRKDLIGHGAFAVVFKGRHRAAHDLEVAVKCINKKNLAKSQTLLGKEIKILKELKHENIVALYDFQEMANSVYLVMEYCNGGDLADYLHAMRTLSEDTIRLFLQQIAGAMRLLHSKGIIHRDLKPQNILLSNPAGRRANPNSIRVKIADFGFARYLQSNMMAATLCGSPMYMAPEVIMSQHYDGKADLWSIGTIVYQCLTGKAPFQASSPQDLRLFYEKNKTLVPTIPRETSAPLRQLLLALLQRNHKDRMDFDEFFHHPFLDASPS
Procedure: Example 175. Biochemical Assay for ULK1.3
Activity of ULK1 kinase was determined spectroscopically using a coupled pyruvate kinase/lactate dehydrogenase assay that continuously monitors the ATP hydrolysis-dependent oxidation of NADH (e.g., Schindler et al. Science (2000) 289: 1938-1942). Assays were conducted in 384-well plates (100 uL final volume) using 0.1 nM ULK1 (from Beryllium), 0.075 mM peptide substrate (YANWLAASIYLDGKKK (SEQ ID NO: 5)), 1.5 units pyruvate kinase, 2.1 units lactate dehydrogenase, 1 mM phosphoenol pyruvate, 0.28 mM NADH and 1 mM ATP in assay buffer (100 mM Tris, pH 7.5, 15 mM MgCl2, 0.5 mM DTT, 0.004% (w/v) BSA, and 0.004% Triton X-100). Inhibition of ULK1 was measured by adding serial diluted test compound (final assay concentration of 1% DMSO). A decrease in absorption at 340 nm was monitored continuously for 6 hours at 30° C. on a multi-mode microplate reader (BioTek). The reaction rate was calculated using the 2-3 h time frame. The reaction rate at each concentration of compound was converted to percent inhibition using controls (i.e. reaction with no test compound and reaction with a known inhibitor) and IC50 values were calculated using software routines in Prism (GraphPad software).

[2] = tested on: phospho-Serine 318 ATG13 (pATG13), ULK kinase substrate, in A549 (KRAS mutant) cells; assay: pATG13 levels of mutant KRas A549 cells after treatment with ULK inhibitors in combination with trametinib (ELISA); assay type: cell-based, human; settings: with 250 nM trametinib
Method in brief: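 A549 cells grown overnight were treated overnight at 37 °C with a dose response of test compound plus 250 nM trametinib (final) or DMSO. Lysates were assayed by sandwich ELISA, with total ATG13 capture and biotinylated pS318-ATG13 detection read at 450 nm minus 540 nm, giving % phosphorylation against control and IC50.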

[3] = tested on: phospho-Serine 318 ATG13 (pATG13) in MiaPaCa-2 cells; assay: pATG13 levels of mutant KRas MiaPaCa-2 cells after treatment with ULK inhibitors in combination with trametinib (ELISA); assay type: cell-based, human
Procedure: Example 178. pATG13 Levels of Mutant KRas MiaPaCa-2 Cells after Treatment with ULK Inhibitors in Combination with Trametinib
(§1) MiaPaCa-2 human pancreatic cancer cells (10000 cells/well) were added to a 384-well tissue-culture treated plate in 50 μL of pre-warmed DMEM medium supplemented with 10% characterized fetal bovine serum (Invitrogen, Carlsbad, Calif.), 100 units/mL penicillin G, 100 μg/mL streptomycin, and 2.5% Horse Serum and allowed to grow overnight at 37° C., 5% CO2, and 95% humidity. The following day, 10 μL of media containing trametinib or DMSO as a control was added to wells. The final concentration of trametinib in wells was 250 nM. A dose response of a test compound (0.6 μL per well) was added. DMSO (0.6 μL) was added to control wells. The plate was briefly shaken to mix wells and then incubated at 37° C. overnight. The next day, the media was aspirated and cells were washed with Dulbecco's Phosphate Buffered Saline (Gibco). Cells were lysed using MPER lysis buffer (Pierce, Rockford, Ill.) containing Halt Phosphatase and Protease Inhibitors (Pierce, Rockford, Ill.) and Phosphatase inhibitor cocktail 2 (Sigma, St. Louis, Mo.) at 4° C. for 10 minutes with shaking.
(§2) Cellular levels of phospho-Serine 318 ATG13 (pATG13) were measured via an ELISA method. Total ATG13 Antibody (Cell Signaling Cat #13273) was used to coat the wells. The plate was incubated at 4° C. overnight and washed with ELISA wash buffer (Biolegend Cat #421601). The wells were then blocked with assay diluent (Biolegend Cat #421203) for 1 hour at room temperature. Plate wells were washed with ELISA wash buffer. Cell lysate was added to wells and incubated at room temperature for 2 hours. Plate wells were washed with ELISA wash buffer. Biotinylated pS318-ATG13 antibody (Rockland Immunochemicals Cat #600-401-C49) was diluted in assay diluent and added to each well and incubated at room temperature for 1 hour. Plate wells were washed with ELISA wash buffer. Streptavidin linked to horseradish peroxidase (Thermo Fisher Cat #21140) was diluted in assay diluent and added to each well and incubated at room temperature for 1 hour. Plate wells were washed with ELISA wash buffer. High sensitivity TMB substrate (Biolegend Cat #421101) was added to each well and incubated at room temperature for 20 minutes. The reaction was stopped with 2N Sulfuric Acid. The plate was analyzed at on a plate reader measuring absorbance at 450 nm and 540 nm (background). Signal was calculated by first subtracting the background absorbance at 540 nm from the absorbance at 450 nm for each well. Next, the background corrected absorbance at 450 nm from blank wells was subtracted from test wells. Data was compared to control wells to determine % ATG13 phosphorylation. GraphPad Prism was used to calculate IC50 values.

ULK1 kinase [4] = biological target: T2, ULK1 kinase (Homo sapiens, UniProt O75385); assay: Biochemical assay for ULK1.2 (coupled pyruvate kinase/lactate dehydrogenase assay); settings: 19 nM ULK1 (Eurofins), myelin basic protein, 1 mM ATP
T2 construct: purchased Eurofins 14-959
T2 sequence (O75385 with tags, fused parts or gaps): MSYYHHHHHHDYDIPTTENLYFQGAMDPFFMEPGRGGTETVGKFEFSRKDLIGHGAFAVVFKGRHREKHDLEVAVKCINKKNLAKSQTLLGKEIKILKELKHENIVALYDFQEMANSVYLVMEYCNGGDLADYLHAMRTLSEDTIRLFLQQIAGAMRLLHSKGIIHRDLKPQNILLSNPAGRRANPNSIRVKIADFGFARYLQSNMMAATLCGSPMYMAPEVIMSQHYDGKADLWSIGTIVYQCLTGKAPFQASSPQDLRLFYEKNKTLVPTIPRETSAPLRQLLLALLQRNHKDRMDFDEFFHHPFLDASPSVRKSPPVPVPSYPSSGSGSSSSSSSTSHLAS
Method in brief: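 NADH-coupled PK/LDH read-out at 340 nm, run with 19 nM ULK1, 0.25 mg/mL myelin basic protein and 1 mM ATP. Buffer was 100 mM Tris pH 7.5 with 15 mM MgCl2 and 1% DMSO final. Monitoring was continuous for 6 hours at 30° C; rates from the 2-3 h window were converted to percent inhibition and fitted to a four-parameter curve for IC50.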

ULK2 kinase = biological target: T3, ULK2 kinase (Homo sapiens, UniProt Q8IYT8); assay: Biochemical assay for ULK2 (coupled pyruvate kinase/lactate dehydrogenase assay); settings: 9.7 nM ULK2 (Eurofins), myelin basic protein, 1 mM ATP; read-out: ULK2.2
T3 construct: purchased Eurofins 14-772
Procedure: Example 176. Biochemical Assay for ULK2
Activity of ULK2 kinase was determined spectroscopically using a coupled pyruvate kinase/lactate dehydrogenase assay that continuously monitors the ATP hydrolysis-dependent oxidation of NADH (e.g., Schindler et al. Science (2000) 289: 1938-1942). Assays were conducted in 384-well plates (100 uL final volume) using 9.7 nM ULK2 (Eurofins CAT #14-772), 0.25 mg/mL myelin basic protein, 1.5 units pyruvate kinase, 2.1 units lactate dehydrogenase, 1 mM phosphoenol pyruvate, 0.28 mM NADH and 1 mM ATP in assay buffer (100 mM Tris, pH 7.5, 15 mM MgCl2, 0.5 mM DTT, 0.1% octyl-glucoside, 0.002% (w/v) BSA, and 0.002% Triton X-100). Inhibition of ULK2 was measured by adding serial diluted test compound (final assay concentration of 1% DMSO). A decrease in absorption at 340 nm was monitored continuously for 6 hours at 30° C. on a multi-mode microplate reader (BioTek). The reaction rate was calculated using the 2-3 h time frame. The reaction rate at each concentration of compound was converted to percent inhibition using controls (i.e. reaction with no test compound and reaction with a known inhibitor) and IC50 values were calculated by fitting a four-parameter sigmoidal curve to the data using Prism (GraphPad software).

[5] = tested on: phospho-Serine 318 ATG13 (pATG13) in HCT-116 cells; assay: pATG13 levels of mutant KRas HCT-116 cells after treatment with ULK inhibitors in combination with trametinib (ELISA); assay type: cell-based, human
Procedure: Example 179. pATG13 Levels of Mutant KRas HCT-116 Cells after Treatment with ULK Inhibitors in Combination with Trametinib
as §1, with “HCT-116” for “MiaPaCa-2”, “colon” for “pancreatic”, “G, and” for “G,”, “streptomycin” for “streptomycin, and 2.5% Horse Serum”
as §2

LRRK2 kinase = biological target: T4, LRRK2 kinase (Homo sapiens, UniProt Q5S007); assay: Biochemical assay for LRRK2 (coupled pyruvate kinase/lactate dehydrogenase assay); settings: 26.4 nM LRRK2 (residues 970-2528), 0.1 mM peptide substrate, 1 mM ATP
T4 construct: purchased Thermo Fisher
T4 sequence (Q5S007 with tags, fused parts or gaps): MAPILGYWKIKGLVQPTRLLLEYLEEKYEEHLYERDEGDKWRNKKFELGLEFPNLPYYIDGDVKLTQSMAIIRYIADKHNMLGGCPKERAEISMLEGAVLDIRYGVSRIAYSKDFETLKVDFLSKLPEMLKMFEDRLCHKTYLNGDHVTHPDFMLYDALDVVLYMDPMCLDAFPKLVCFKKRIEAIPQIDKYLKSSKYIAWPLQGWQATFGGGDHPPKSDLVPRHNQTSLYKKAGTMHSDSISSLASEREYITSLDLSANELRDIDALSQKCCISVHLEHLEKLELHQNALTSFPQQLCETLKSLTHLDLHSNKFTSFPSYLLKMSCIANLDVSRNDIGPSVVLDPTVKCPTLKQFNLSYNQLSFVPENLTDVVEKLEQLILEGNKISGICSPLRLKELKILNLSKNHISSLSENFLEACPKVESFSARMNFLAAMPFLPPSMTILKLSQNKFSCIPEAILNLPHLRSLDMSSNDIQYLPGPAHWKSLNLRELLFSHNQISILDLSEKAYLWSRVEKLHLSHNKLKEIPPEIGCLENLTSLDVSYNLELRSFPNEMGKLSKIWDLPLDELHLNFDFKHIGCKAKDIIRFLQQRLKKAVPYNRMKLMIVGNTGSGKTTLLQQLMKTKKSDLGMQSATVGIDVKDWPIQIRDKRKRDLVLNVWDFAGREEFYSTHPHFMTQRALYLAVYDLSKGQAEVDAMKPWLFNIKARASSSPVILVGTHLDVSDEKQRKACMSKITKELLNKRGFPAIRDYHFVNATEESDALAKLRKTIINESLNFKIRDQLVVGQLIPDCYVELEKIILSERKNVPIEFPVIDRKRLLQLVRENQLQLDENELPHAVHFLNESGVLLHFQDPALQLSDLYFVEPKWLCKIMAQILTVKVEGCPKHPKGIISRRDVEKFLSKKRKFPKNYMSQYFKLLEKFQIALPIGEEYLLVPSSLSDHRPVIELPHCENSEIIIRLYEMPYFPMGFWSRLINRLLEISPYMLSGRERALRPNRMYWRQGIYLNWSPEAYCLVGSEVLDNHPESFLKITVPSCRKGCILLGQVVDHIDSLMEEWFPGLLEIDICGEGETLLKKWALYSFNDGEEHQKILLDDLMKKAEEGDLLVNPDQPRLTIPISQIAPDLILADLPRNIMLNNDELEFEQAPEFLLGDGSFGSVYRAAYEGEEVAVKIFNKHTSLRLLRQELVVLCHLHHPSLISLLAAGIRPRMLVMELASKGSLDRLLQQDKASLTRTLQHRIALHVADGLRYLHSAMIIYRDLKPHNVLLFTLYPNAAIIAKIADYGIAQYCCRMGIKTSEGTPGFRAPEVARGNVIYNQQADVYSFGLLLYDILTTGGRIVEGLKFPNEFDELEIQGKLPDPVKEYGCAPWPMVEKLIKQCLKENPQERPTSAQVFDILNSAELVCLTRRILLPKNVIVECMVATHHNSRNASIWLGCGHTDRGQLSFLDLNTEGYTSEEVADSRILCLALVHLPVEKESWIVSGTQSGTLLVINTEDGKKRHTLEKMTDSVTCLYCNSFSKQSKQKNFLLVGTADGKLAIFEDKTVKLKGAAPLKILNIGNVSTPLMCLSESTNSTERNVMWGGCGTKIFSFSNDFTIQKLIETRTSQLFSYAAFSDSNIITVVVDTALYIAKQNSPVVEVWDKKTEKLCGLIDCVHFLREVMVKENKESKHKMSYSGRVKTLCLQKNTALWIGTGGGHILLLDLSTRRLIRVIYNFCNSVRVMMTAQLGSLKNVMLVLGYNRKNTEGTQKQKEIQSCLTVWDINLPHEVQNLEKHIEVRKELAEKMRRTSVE

T3 sequence (Q8IYT8 with tags, fused parts or gaps): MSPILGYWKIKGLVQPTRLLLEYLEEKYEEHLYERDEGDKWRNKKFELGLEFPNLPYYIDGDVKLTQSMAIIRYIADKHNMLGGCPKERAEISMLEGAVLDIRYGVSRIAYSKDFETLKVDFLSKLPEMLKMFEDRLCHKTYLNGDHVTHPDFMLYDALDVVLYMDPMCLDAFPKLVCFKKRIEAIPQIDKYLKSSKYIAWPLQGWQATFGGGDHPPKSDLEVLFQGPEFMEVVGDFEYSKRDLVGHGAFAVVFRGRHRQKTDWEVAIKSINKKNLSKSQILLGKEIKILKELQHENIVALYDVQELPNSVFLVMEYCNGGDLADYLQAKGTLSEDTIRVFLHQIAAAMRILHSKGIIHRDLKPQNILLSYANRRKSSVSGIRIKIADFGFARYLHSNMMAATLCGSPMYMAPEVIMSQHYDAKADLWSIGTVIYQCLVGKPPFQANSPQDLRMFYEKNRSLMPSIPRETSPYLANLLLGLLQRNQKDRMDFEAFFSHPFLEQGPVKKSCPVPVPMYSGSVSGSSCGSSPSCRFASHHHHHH

SMILES	IC50 (ULK1 kinase [1])	IC50 [2]	IC50 [3]	IC50 (ULK1 kinase [4])	IC50 (ULK2 kinase)	IC50 [5]	IC50 (LRRK2 kinase)
Cc1nn([C@@H]2CCN(C)C2)cc1Nc1ncc(Br)c(NCCCN2CCOCCC2=O)n1 [Example 138]	25 to 100 nM	300 to 600 nM	100 to 300 nM	–	–	–	–
CCN1CC[C@H](n2cc(Nc3ncc(C(F)(F)F)c(NCCCN4CCCCC4=O)n3)c(C)n2)C1 [Example 66]	–	100 to 300 nM	100 to 300 nM	25 to 100 nM	100 to 500 nM	–	–
Cc1nn([C@@H]2CCN(C)C2)cc1Nc1ncc(Br)c(NCCCN2CCCCC2=O)n1 [Example 44]	–	100 to 300 nM	100 to 300 nM	25 to 100 nM	100 to 500 nM	–	–
Cc1nn(C2CCN(C(C)C)CC2)cc1Nc1ncc(Cl)c(NCCCN2CCCOC2=O)n1 [Example 72]	25 to 100 nM	> 600 nM	100 to 300 nM	–	–	–	–
Cc1nn(CCCN2CCCC2)cc1Nc1ncc(C(F)(F)F)c(NCCCN2CCCCCC2=O)n1 [Example 99]	–	100 to 300 nM	10 to 100 nM	1 to 25 nM	100 to 500 nM	–	–
Cc1nn(C2CCNCC2)cc1Nc1ncc(C(F)(F)F)c(NCCCN2CCCCC2=O)n1 [Example 14]	–	300 to 600 nM	–	1 to 25 nM	1 to 25 nM	10 to 100 nM	–
Cc1nn(C2CCN(C)C2)cc1Nc1ncc(Br)c(NCCCN2CCCOCC2=O)n1 (centres unmarked) [Example 118]	25 to 100 nM	300 to 600 nM	100 to 300 nM	–	–	–	1 to 100 nM
Cc1nn([C@@H]2CCN(C)C2)cc1Nc1ncc(C(F)(F)F)c(NCCCN2CCOCCC2=O)n1 [Example 133]	–	10 to 100 nM	10 to 100 nM	1 to 25 nM	–	–	–
Cc1nn(C2CCN(C(C)C)CC2)cc1Nc1ncc(Br)c(NCCCN2CCCOC2=O)n1 [Example 71]	25 to 100 nM	> 600 nM	100 to 300 nM	–	–	–	–

Second part, the molecule after the results:

IC50 (ULK1 kinase [1])	IC50 [2]	IC50 [3]	IC50 (ULK1 kinase [4])	IC50 (ULK2 kinase)	IC50 [5]	IC50 (LRRK2 kinase)	SMILES
–	> 600 nM	10 to 100 nM	25 to 100 nM	100 to 500 nM	–	–	Cc1nn([C@@H]2CCNC2)cc1Nc1ncc(Br)c(NCCCN2CCCCC2=O)n1 [Example 60]
–	100 to 300 nM	100 to 300 nM	25 to 100 nM	–	10 to 100 nM	–	CCc1nn(C2CCN(C)CC2)cc1Nc1ncc(C(F)(F)F)c(NCCCN2CCCOCC2=O)n1 [Example 109]
–	> 600 nM	> 600 nM	100 to 500 nM	> 500 nM	–	–	Cc1nn(CCCN2CCOCC2)cc1Nc1ncc(C(F)(F)F)c(NCCCN2CCOCCC2=O)n1 [Example 129]
–	10 to 100 nM	–	1 to 25 nM	1 to 25 nM	100 to 300 nM	–	O=C1CCCCN1CCCNc1nc(Nc2cnn(C3CCNCC3)c2)ncc1C(F)(F)F [Example 7]
–	100 to 300 nM	10 to 100 nM	25 to 100 nM	100 to 500 nM	–	–	CCN1CCC(n2cc(Nc3cc(NCCCN4CCCCC4=O)c(C(F)(F)F)cn3)cn2)CC1 [Example 16]
1 to 25 nM	10 to 100 nM	10 to 100 nM	–	–	–	–	CN1CCC(n2ccc(Nc3cc(NCCCN4CCCCC4=O)c(C(F)(F)F)cn3)n2)CC1 [Example 173]
–	300 to 600 nM	10 to 100 nM	1 to 25 nM	–	10 to 100 nM	–	CCc1nn(C2CCNCC2)cc1Nc1ncc(C(F)(F)F)c(NCCCN2CCCCC2=O)n1 [Example 40]
–	300 to 600 nM	100 to 300 nM	25 to 100 nM	–	–	–	O=C1CCCCCN1CCCNc1nc(Nc2cnn(CCN3CCOCC3)c2)ncc1C(F)(F)F [Example 96]
